According to ChEMBL document CHEMBL4699590, “Discovery of SARxxxx92, a pan-PIM kinase inhibitor, efficacious in a KG1 tumor model” (Bioorg Med Chem Lett, 2020):
Values after ≈ are worked out from the molar mass of the structure shown.

Tests used:
[1] = Inhibition of PIM in human KG-1 cells assessed as reduction in PS6 level; type: cell-based
KG-1 [2] = test: Cytotoxicity against human KG-1 cells assessed as reduction in cell viability; type: functional, cell-based
[3] = Permeability in human Caco2/TC7 cells at 5 uM; type: ADME, cell-based; conditions: Caco-2, read-out: permeability
[4] = molecular target: Serine/threonine-protein kinase pim-2 (Homo sapiens, UniProt Q9P1W9); test: Inhibition of PIM2 (unknown origin)
[5] = molecular target: Voltage-gated inwardly rectifying potassium channel KCNH2 (Homo sapiens, UniProt Q12809); test: Inhibition of human ERG by patch clamp assay
[6] = Oral bioavailability in rat at 10 mg/kg; type: ADME, organism-based; conditions: in vivo
[7] = Free plasma concentration in human KG-1 tumor bearing mouse at 25 mg/kg, po measured after 8 hrs; type: ADME, organism-based; conditions: in vivo
[8] = Free plasma concentration in human KG-1 tumor bearing mouse at 25 mg/kg, po measured after 24 hrs; type: ADME, organism-based; conditions: in vivo
[9] = Thermodynamic solubility in pH 7.4 buffer; type: physicochemical; conditions: read-out: Therm_solubility
[10] = Cmax in rat at 3 mg/kg, iv; type: ADME, organism-based; design: route intravenous, dose 3 mg/kg; conditions: in vivo
[11] = Half life in rat at 3 mg/kg, iv; type: ADME, organism-based; conditions: in vivo
[12] = Clearance in rat at 3 mg/kg, iv; type: ADME, organism-based; conditions: in vivo
[13] = Volume of distribution at steady state in rat at 3 mg/kg, iv; type: ADME, organism-based; conditions: in vivo, read-out: Vdss
KG-1 [14] = test: Antitumor activity against human KG-1 tumor bearing mouse assessed as reduction BAD phosphorylation at 25 mg/kg, po measured after 8 hrs; type: functional; conditions: KG-1, po
KG-1 [15] = test: Antitumor activity against human KG-1 tumor bearing mouse assessed as reduction BAD phosphorylation at 25 mg/kg, po measured after 24 hrs; type: functional; conditions: KG-1, po
KG-1 [16] = test: Antitumor against human KG-1 cells xenografted in mouse assessed as tumor volume at 150 mg/kg, po administered BID for 3 weeks relative to control; type: functional
KG-1 [17] = test: Antitumor against human KG-1 cells xenografted in mouse assessed as tumor growth inhibition at 150 mg/kg, po administered BID for 3 weeks; type: functional; conditions: KG-1, po, 504 h, read-out: TGI
[18] = Toxicity in mouse xenografted with human KG-1 cells assessed as reduction in body weight at 50 to 150 mg/kg, po administered bid for 3 weeks; type: organism-based; design: scale not given: the % may be the effect or the level left; conditions: in vivo, 504 h, dose 50-150 mg/kg
KG-1 [19] = test: Antitumor against human KG-1 cells xenografted in mouse assessed as tumor volume at 100 mg/kg, po administered BID for 3 weeks relative to control; type: functional
KG-1 [20] = test: Antitumor against human KG-1 cells xenografted in mouse assessed as tumor volume at 50 mg/kg, po administered BID for 3 weeks relative to control; type: functional
[21] = Unbound fraction in human KG-1 tumor bearing mouse plasma at 25 mg/kg, po; type: ADME, organism-based
[22] = Free tumor concentration in human KG-1 tumor bearing mouse at 25 mg/kg, po measured after 8 hrs; type: ADME, organism-based, Neoplasm; conditions: in vivo
[23] = Free tumor concentration in human KG-1 tumor bearing mouse at 25 mg/kg, po measured after 24 hrs; type: ADME, organism-based, Neoplasm; conditions: in vivo

Serine/threonine-protein kinase pim-2, sequence (Q9P1W9 whole entry): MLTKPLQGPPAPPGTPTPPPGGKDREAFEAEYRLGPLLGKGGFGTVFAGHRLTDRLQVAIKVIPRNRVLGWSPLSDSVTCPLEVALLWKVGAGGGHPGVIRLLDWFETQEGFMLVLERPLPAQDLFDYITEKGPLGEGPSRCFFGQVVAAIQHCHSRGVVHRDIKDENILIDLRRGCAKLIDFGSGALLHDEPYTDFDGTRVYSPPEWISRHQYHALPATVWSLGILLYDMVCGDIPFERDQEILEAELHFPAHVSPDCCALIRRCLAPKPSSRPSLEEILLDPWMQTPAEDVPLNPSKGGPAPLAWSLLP
Voltage-gated inwardly rectifying potassium channel KCNH2, sequence (Q12809 whole entry): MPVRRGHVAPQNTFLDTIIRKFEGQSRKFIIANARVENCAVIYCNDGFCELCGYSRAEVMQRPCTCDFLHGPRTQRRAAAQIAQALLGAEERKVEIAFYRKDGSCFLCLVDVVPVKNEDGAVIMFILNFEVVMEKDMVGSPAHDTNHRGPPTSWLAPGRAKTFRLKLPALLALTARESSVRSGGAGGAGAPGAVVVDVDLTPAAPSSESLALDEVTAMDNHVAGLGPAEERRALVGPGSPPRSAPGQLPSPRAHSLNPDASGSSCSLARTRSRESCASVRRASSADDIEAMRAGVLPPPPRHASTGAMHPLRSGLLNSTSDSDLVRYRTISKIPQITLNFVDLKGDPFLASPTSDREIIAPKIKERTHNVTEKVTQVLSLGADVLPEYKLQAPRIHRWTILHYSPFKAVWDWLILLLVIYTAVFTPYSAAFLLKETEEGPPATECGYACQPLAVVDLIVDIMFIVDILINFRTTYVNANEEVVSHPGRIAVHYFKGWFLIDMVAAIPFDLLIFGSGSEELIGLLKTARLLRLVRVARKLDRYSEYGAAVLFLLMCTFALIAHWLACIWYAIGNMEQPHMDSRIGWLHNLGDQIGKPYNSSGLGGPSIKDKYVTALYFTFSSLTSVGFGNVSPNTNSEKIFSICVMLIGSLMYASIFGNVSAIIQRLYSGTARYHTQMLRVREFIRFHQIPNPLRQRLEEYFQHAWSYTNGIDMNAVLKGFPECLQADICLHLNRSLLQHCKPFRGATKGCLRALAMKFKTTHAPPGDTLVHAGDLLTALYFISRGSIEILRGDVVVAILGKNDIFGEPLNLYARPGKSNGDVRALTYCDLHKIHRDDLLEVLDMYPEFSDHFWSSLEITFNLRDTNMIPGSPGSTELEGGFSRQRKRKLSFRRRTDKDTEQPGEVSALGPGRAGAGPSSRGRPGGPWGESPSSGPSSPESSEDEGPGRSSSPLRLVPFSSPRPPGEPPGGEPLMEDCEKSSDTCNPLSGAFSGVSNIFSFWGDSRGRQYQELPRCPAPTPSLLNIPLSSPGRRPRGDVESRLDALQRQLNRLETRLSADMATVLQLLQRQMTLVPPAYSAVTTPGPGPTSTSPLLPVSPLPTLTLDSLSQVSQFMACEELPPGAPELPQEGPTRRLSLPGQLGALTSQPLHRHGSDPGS

| EC50 [1] [nM] | Papp at 5 µM [3] [×10⁻⁶ cm/s] | IC50 [4] [nM] | SMILES | EC50 (KG-1 [2]) [nM] | other results |
| --- | --- | --- | --- | --- | --- |
| 52 | 7.1 |  | Cc1cn([C@H](C)[C@H]2CCNC[C@@H]2F)c2nc(C(N)=O)cc(Cl)c12 (racemic) | 51 |  |
| 115 | 1.7 |  | Cc1cn([C@@H](C)[C@@H]2CCNC[C@@H]2F)c2nc(C(N)=O)cc(Cl)c12 (racemic) | 195 |  |
|  |  | 1780 | Cc1cn([C@H](C)[C@@]2(F)CCNC2)c2nc(C(N)=O)cc(Cl)c12 (stereo in doubt) | 7230 |  |
| 2030 | 1.8 | 515 | Cc1cn([C@H](C)[C@]2(F)CCNC2)c2nc(C(N)=O)cc(Cl)c12 (stereo in doubt) | 9070 | IC50 [5]: 30000 nM |
| 24 | 12 |  | Cc1cn([C@H](C)[C@@H]2CCNC[C@H]2F)c2nc(C(N)=O)cc(Cl)c12 (racemic) | 20 |  |
| 6 | 1.5 |  | Cc1cn([C@@H](C)[C@H]2CCNC[C@H]2F)c2nc(C(N)=O)cc(Cl)c12 (racemic) | 17 |  |
| 71 | 2.3 | 6 | Cc1cn([C@@H](C)[C@]2(F)CCNC2)c2nc(C(N)=O)cc(Cl)c12 (stereo in doubt) | 61 | bioavailability [6]: 59%; Cp(f) [7]: 240 nM; Cp(f) [8]: 54 nM; IC50 [5]: 22000 nM; solubility thermodynamic [9]: 6.8 mM (≈ 2210 µg/mL); Cmax [10]: 174 ng/mL; half-life [11]: 2.7 h; clearance [12]: 75 mL/min/kg; Vd [13]: 9.9 L/kg; inhibition in vivo at 25 mg/kg (KG-1 [14]): 65%; inhibition in vivo at 25 mg/kg (KG-1 [15]): 55%; T/C (KG-1 [16]): 13.1%; inhibition in vivo at 150 mg/kg (KG-1 [17]): 87%; Activity [18]: > 15%; T/C (KG-1 [19]): 50.7%; T/C (KG-1 [20]): 56.1%; fraction unbound [21]: 0.055; Drug uptake(free) [22]: 720 nM; Drug uptake(free) [23]: 120 nM |
| 876 |  | 160 | Cc1cn([C@@H](C)[C@@]2(F)CCNC2)c2nc(C(N)=O)cc(Cl)c12 (stereo in doubt) | 808 |  |
